From article PMC3038857, “Using Nuclear Receptor Activity to Stratify Hepatocarcinogens” (PLoS ONE, 2011)
Like-named read-outs stand apart in the source and are kept apart here.

Columns and labels:
Mouse Liver [1] = settings: ref ToxRefDB, cited from earlier work
Rat Liver [2] = settings: ref ToxRefDB, cited from earlier work
Mouse Liver [3] = settings: ref ToxRefDB, cited from earlier work; remark: listed apart in the source
Rat Liver [4] = settings: ref ToxRefDB, cited from earlier work; remark: listed apart in the source
Mouse Liver [5] = settings: ref ToxRefDB, cited from earlier work; remark: listed apart in the source
Rat Liver [6] = settings: ref ToxRefDB, cited from earlier work; remark: listed apart in the source
CYP2B6 = assay: CLZD_CYP2B6: Change in expression of CYP2B6 (primary human hepatocytes); type: cell-based; settings: 24 hr
Description: (§1) This is a collection of multiplexed gene expression assays focused on Phase I and II xenobiotic metabolizing enzymes and transporters. Human primary cell cultures were treated with chemicals at 5 concentrations (0.004-40 [drawing 42] M) for 6, 24 and 48 hr. Concentration- and time-response profiles of chemicals were measured by the expression of key nuclear receptor target genes, activities of CYP1A enzymes (EROD), and cell morphology. Fourteen gene targets were monitored by quantitative nuclease protection assay including: six representative cytochrome P-450 genes, four hepatic transporters, three Phase II conjugating enzymes, and one endogenous metabolism gene involved in cholesterol synthesis. The target genes associated with nuclear receptor pathways are as follows: [drawing 43] and [drawing 44] with [drawing 45]; [drawing 46] , [drawing 47] , [drawing 48] , [drawing 49] , [drawing 50] and [drawing 51] with [drawing 52]; [drawing 53] , [drawing 54] , [drawing 55] and [drawing 56] with [drawing 57]; [drawing 58] with [drawing 59]; and [drawing 60] with [drawing 61] . Assays were run in primary human hepatocyte cultures by CellzDirect Invitrogen Inc. (Durham, NC), in collaboration with EPA.
(§2) Multiplexed Gene Expression in Human Primary Hepatocytes: This is a collection of multiplexed gene expression assays focused on Phase I and II metabolic enzymes and transporters. […] Fourteen gene targets were monitored by quantitative nuclease protection assay: six representative cytochrome P450 genes, four hepatic transporters, three Phase II conjugating enzymes, and one endogenous metabolism gene involved in cholesterol synthesis. Cells were exposed at 5 concentrations (0.004-40 µM) for 6, 24 or 48 hr. Gene targets are sentinels for five nuclear receptor signaling pathways: AhR, CAR, PXR, FXR, and PPARα. All gene are associated with nuclear receptor pathways: CYP1A1 and CYP1A2 with AHR; ABCB1, ABCG2, CYP2B6, CYP2C9, CYP2C19 and UGT1A1 with CAR; CYP3A4, GSTA2, SLCO1B1 and SULT2A1 with PXR; HMGCS2 with PPARA; and ABCB11 with FXR. […] Detailed description of the methods, data and analysis methods for this dataset will be presented in a separate publication.

PXR (NR1I2) = target: T1, PXR (NR1I2) (Homo sapiens, UniProt O75469); assay: ATG_PXRE_CIS: Factorial reporter gene assay (HepG2); type: cell-based; design: endogenous in cells; host or cells: HepG2; settings: HepG2
T1 sequence (O75469 1-434): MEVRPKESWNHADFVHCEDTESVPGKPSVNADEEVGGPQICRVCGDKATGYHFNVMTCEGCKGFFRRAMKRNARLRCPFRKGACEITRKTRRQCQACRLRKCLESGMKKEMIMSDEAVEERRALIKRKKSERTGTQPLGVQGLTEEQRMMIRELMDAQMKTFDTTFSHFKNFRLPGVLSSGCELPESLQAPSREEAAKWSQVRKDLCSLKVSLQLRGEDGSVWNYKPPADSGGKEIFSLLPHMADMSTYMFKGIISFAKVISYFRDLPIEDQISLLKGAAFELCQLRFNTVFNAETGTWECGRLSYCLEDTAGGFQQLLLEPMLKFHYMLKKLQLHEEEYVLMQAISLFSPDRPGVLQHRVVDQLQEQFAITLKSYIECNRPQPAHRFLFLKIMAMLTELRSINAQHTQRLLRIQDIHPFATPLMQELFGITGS
Outline: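 Compounds at seven concentrations (top at MTC, threefold serial) were applied to transfected HepG2 hepatoma cells, with PXRE scored by cis-element reporters and ERRg, FXR and PPARg scored by trans one-hybrid nuclear receptor reporters.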

CYP3A4 = assay: CLZD_CYP3A4: Change in expression of CYP3A4 (primary human hepatocytes); type: cell-based; settings: 24 hr
Description: as §1, §2

[7] = mouse chronic study, liver, preneoplastic lesion, coded 6 / Inf, code not explained in the table
[8] = rat chronic study, liver, neoplastic lesion, coded 6 / 0, code not explained in the table
[9] = mouse chronic study, liver, any lesion, coded 6 / Inf, code not explained in the table
[10] = rat chronic study, liver, any lesion, coded 6 / 0, code not explained in the table
[11] = mouse chronic study, liver, neoplastic lesion, coded 6 / Inf, code not explained in the table
[12] = rat chronic study, liver, preneoplastic lesion, coded 6 / 0, code not explained in the table
[13] = mouse chronic study, liver, coded 6 / Inf, code not explained in table
[14] = rat chronic study, liver, coded 6 / 0, code not explained in table

CCCOC(=O)c1ccc(C(=O)OCCC)nc1 [Dataset S3 row 4]
CHR_Mouse_Liver_2_PreneoplasticLesion (Mouse Liver [1]; [7]): 6 | CHR_Rat_Liver_3_NeoplasticLesion (Rat Liver [2]; [8]): 6 | CHR_Mouse_Liver_1_AnyLesion (Mouse Liver [3]; [9]): 6 | CHR_Rat_Liver_1_AnyLesion (Rat Liver [4]; [10]): 6 | CHR_Mouse_Liver_3_NeoplasticLesion (Mouse Liver [5]; [11]): 6 | CHR_Rat_Liver_2_PreneoplasticLesion (Rat Liver [6]; [12]): 6

CCCCNC(=O)OCC#CI [Dataset S3 row 6]
CHR_Mouse_Liver_2_PreneoplasticLesion (Mouse Liver [1]; [7]): 6 | CHR_Rat_Liver_3_NeoplasticLesion (Rat Liver [2]; [8]): 0 | CHR_Mouse_Liver_1_AnyLesion (Mouse Liver [3]; [9]): 6 | CHR_Rat_Liver_1_AnyLesion (Rat Liver [4]; [10]): 6 | CHR_Mouse_Liver_3_NeoplasticLesion (Mouse Liver [5]; [11]): 6 | CHR_Rat_Liver_2_PreneoplasticLesion (Rat Liver [6]; [12]): 0

CCCCNC(=O)OCC#CI [Dataset S3 row 7]
CHR_Mouse_Liver_2_PreneoplasticLesion (Mouse Liver [1]; [7]): 6 | CHR_Rat_Liver_3_NeoplasticLesion (Rat Liver [2]; [8]): 0 | CHR_Mouse_Liver_1_AnyLesion (Mouse Liver [3]; [9]): 6 | CHR_Rat_Liver_1_AnyLesion (Rat Liver [4]; [10]): 6 | CHR_Mouse_Liver_3_NeoplasticLesion (Mouse Liver [5]; [11]): 6 | CHR_Rat_Liver_2_PreneoplasticLesion (Rat Liver [6]; [12]): 0

Cc1ccc(/N=C/N(C)/C=N/c2ccc(C)cc2C)c(C)c1 [Dataset S3 row 18]
CHR_Mouse_Liver_2_PreneoplasticLesion (Mouse Liver [1]; [7]): 6 | CHR_Rat_Liver_3_NeoplasticLesion (Rat Liver [2]; [8]): 0 | CHR_Mouse_Liver_1_AnyLesion (Mouse Liver [3]; [9]): 6 | CHR_Rat_Liver_1_AnyLesion (Rat Liver [4]; [10]): 0 | CHR_Mouse_Liver_3_NeoplasticLesion (Mouse Liver [5]; [11]): 6 | CHR_Rat_Liver_2_PreneoplasticLesion (Rat Liver [6]; [12]): 0

CN1COCN(Cc2cnc(Cl)s2)/C1=N\[N+](=O)[O-] [chemical 296]
CHR_Mouse_Liver_2_PreneoplasticLesion (Mouse Liver [1]; [13]): 6 | CHR_Rat_Liver_3_NeoplasticLesion (Rat Liver [2]; [14]): 0 | CHR_Mouse_Liver_1_AnyLesion (Mouse Liver [3]; [13]): 6 | CHR_Rat_Liver_1_AnyLesion (Rat Liver [4]; [14]): 6 | CHR_Mouse_Liver_3_NeoplasticLesion (Mouse Liver [5]; [13]): 6 | CHR_Rat_Liver_2_PreneoplasticLesion (Rat Liver [6]; [14]): 0

CS/C(C)=N/OC(=O)N(C)SN(C)C(=O)O/N=C(\C)SC [chemical 300]
CHR_Mouse_Liver_2_PreneoplasticLesion (Mouse Liver [1]; [13]): 6 | CHR_Rat_Liver_3_NeoplasticLesion (Rat Liver [2]; [14]): 0 | CHR_Mouse_Liver_1_AnyLesion (Mouse Liver [3]; [13]): 6 | CHR_Rat_Liver_1_AnyLesion (Rat Liver [4]; [14]): 0 | CHR_Mouse_Liver_3_NeoplasticLesion (Mouse Liver [5]; [13]): 6 | CHR_Rat_Liver_2_PreneoplasticLesion (Rat Liver [6]; [14]): 0

CC(C)(C)C(=O)C(Oc1ccc(Cl)cc1)n1cncn1 (stereo not drawn) [chemical 304]
CHR_Mouse_Liver_2_PreneoplasticLesion (Mouse Liver [1]; [13]): 6 | CHR_Rat_Liver_3_NeoplasticLesion (Rat Liver [2]; [14]): 0 | CHR_Mouse_Liver_1_AnyLesion (Mouse Liver [3]; [13]): 6 | CHR_Rat_Liver_1_AnyLesion (Rat Liver [4]; [14]): 6 | CHR_Mouse_Liver_3_NeoplasticLesion (Mouse Liver [5]; [13]): 6 | CHR_Rat_Liver_2_PreneoplasticLesion (Rat Liver [6]; [14]): 0

CC(C)(C)C(O)C(Oc1ccc(Cl)cc1)n1cncn1 (stereo not drawn) [chemical 305]
CHR_Mouse_Liver_2_PreneoplasticLesion (Mouse Liver [1]; [13]): 6 | CHR_Rat_Liver_3_NeoplasticLesion (Rat Liver [2]; [14]): 0 | CHR_Mouse_Liver_1_AnyLesion (Mouse Liver [3]; [13]): 6 | CHR_Rat_Liver_1_AnyLesion (Rat Liver [4]; [14]): 0 | CHR_Mouse_Liver_3_NeoplasticLesion (Mouse Liver [5]; [13]): 6 | CHR_Rat_Liver_2_PreneoplasticLesion (Rat Liver [6]; [14]): 0

COC(=O)c1cccc(C)c1S(=O)(=O)NC(=O)Nc1nc(OCC(F)(F)F)nc(N(C)C)n1 [chemical 317]
CHR_Mouse_Liver_2_PreneoplasticLesion (Mouse Liver [1]; [13]): 6 | CHR_Rat_Liver_3_NeoplasticLesion (Rat Liver [2]; [14]): 0 | CHR_Mouse_Liver_1_AnyLesion (Mouse Liver [3]; [13]): 6 | CHR_Rat_Liver_1_AnyLesion (Rat Liver [4]; [14]): 0 | CHR_Mouse_Liver_3_NeoplasticLesion (Mouse Liver [5]; [13]): 6 | CHR_Rat_Liver_2_PreneoplasticLesion (Rat Liver [6]; [14]): 0

C=CC1(C)OC(=O)N(c2cc(Cl)cc(Cl)c2)C1=O (stereo not drawn) [chemical 319]
CHR_Mouse_Liver_2_PreneoplasticLesion (Mouse Liver [1]; [13]): 6 | CHR_Rat_Liver_3_NeoplasticLesion (Rat Liver [2]; [14]): 6 | CHR_Mouse_Liver_1_AnyLesion (Mouse Liver [3]; [13]): 6 | CHR_Rat_Liver_1_AnyLesion (Rat Liver [4]; [14]): 6 | CHR_Mouse_Liver_3_NeoplasticLesion (Mouse Liver [5]; [13]): 6 | CHR_Rat_Liver_2_PreneoplasticLesion (Rat Liver [6]; [14]): 6

COC(=O)c1ccccc1S(=O)(=O)NC(=O)Nc1nc(OC(F)F)cc(OC(F)F)n1 [r250]
CLZD_CYP2B6_24 (CYP2B6): 5.187 | CHR_Mouse_Liver_2_PreneoplasticLesion (Mouse Liver [1]; mouse, chronic study): 6 | CHR_Rat_Liver_3_NeoplasticLesion (Rat Liver [2]; rat, chronic study): 0 | CHR_Mouse_Liver_1_AnyLesion (Mouse Liver [3]; mouse, chronic study): 6 | CHR_Rat_Liver_1_AnyLesion (Rat Liver [4]; rat, chronic study): 0 | CHR_Mouse_Liver_3_NeoplasticLesion (Mouse Liver [5]; mouse, chronic study): 6 | ATG_PXRE_CIS (PXR (NR1I2)): 4.469 | CHR_Rat_Liver_2_PreneoplasticLesion (Rat Liver [6]; rat, chronic study): 0

CNC(=O)Oc1ccccc1OC(C)C [r263]
CLZD_CYP2B6_24 (CYP2B6): 5.434 | CHR_Mouse_Liver_2_PreneoplasticLesion (Mouse Liver [1]; mouse, chronic study): 6 | CHR_Rat_Liver_3_NeoplasticLesion (Rat Liver [2]; rat, chronic study): 0 | CLZD_CYP3A4_24 (CYP3A4): 5.055 | CHR_Mouse_Liver_1_AnyLesion (Mouse Liver [3]; mouse, chronic study): 6 | CHR_Rat_Liver_1_AnyLesion (Rat Liver [4]; rat, chronic study): 0 | CHR_Mouse_Liver_3_NeoplasticLesion (Mouse Liver [5]; mouse, chronic study): 6 | CHR_Rat_Liver_2_PreneoplasticLesion (Rat Liver [6]; rat, chronic study): 0

CC1=NNC(=O)N(/N=C/c2cccnc2)C1 [r269]
CHR_Mouse_Liver_2_PreneoplasticLesion (Mouse Liver [1]; chronic study, mouse liver): 6 | CHR_Rat_Liver_3_NeoplasticLesion (Rat Liver [2]; chronic study, rat liver): 6 | CHR_Mouse_Liver_1_AnyLesion (Mouse Liver [3]; chronic study, mouse liver): 6 | CHR_Rat_Liver_1_AnyLesion (Rat Liver [4]; chronic study, rat liver): 6 | CHR_Mouse_Liver_3_NeoplasticLesion (Mouse Liver [5]; chronic study, mouse liver): 6 | CHR_Rat_Liver_2_PreneoplasticLesion (Rat Liver [6]; chronic study, rat liver): 6

Clc1cccc(C(Cl)(Cl)Cl)n1 [row 221]
CLZD_CYP2B6_24 (CYP2B6): 5.088 | CHR_Mouse_Liver_2_PreneoplasticLesion (Mouse Liver [1]; chronic mouse study, liver): 6 | CHR_Rat_Liver_3_NeoplasticLesion (Rat Liver [2]; chronic rat study, liver): 0 | CHR_Mouse_Liver_1_AnyLesion (Mouse Liver [3]; chronic mouse study, liver): 6 | CHR_Rat_Liver_1_AnyLesion (Rat Liver [4]; chronic rat study, liver): 6 | CHR_Mouse_Liver_3_NeoplasticLesion (Mouse Liver [5]; chronic mouse study, liver): 6 | ATG_PXRE_CIS (PXR (NR1I2)): 4.292 | CHR_Rat_Liver_2_PreneoplasticLesion (Rat Liver [6]; chronic rat study, liver): 0
